In patent US10065990B2, “Cyclic peptide compound, and preparation method, pharmaceutical composition and use thereof” (HANGZHOU GUANYU BIO-MEDICAL CO., LTD, priority 2013, dated 2018):
Read-outs that look alike come from different tables or passages of the source. One block for each compound: values may come before it.

Columns and labels:
[1] = molecular target: HDAC2 (Homo sapiens, UniProt Q92769); test: HDAC biochemical activity measurement (fluorescent substrate deacetylation);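 note: HDAC2 enzyme with an acetyl-lysine fluorescent substrate, then developer added, fluorescence read at excitation 360 nm and emission 460 nm, inhibition measured across several compound concentrations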; conditions: 37° C. 30 minutes
Chain of HDAC2 (Q92769 whole entry, species assumed): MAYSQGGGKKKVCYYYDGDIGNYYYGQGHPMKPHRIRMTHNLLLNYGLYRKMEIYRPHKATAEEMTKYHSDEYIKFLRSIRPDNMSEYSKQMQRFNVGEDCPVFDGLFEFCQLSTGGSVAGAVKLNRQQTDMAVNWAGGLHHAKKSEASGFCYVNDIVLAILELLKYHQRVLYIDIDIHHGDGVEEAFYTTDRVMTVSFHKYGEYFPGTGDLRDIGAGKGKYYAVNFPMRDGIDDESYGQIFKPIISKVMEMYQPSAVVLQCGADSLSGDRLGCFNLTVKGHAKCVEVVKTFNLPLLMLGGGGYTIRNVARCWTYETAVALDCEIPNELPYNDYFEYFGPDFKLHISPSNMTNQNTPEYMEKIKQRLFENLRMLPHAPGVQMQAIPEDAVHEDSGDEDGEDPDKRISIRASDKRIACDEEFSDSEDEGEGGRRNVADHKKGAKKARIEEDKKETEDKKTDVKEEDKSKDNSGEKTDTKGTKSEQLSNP

[2] = test system: Hela (human cervical cancer cells); test: MTT cancer cell growth inhibition; type: cell-based; conditions: Homo sapiens, HeLa, 72 h, MTT
Summary of the method: (§1)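 GI50 values come from MTT viability: after 72 h compound exposure (final 10^−5–10^−10 M, three wells each) of cells plated overnight at 1500/well in 10% FBS medium, MTT was given for 4 h. The DMSO-solubilised formazan was then measured at 570 nm.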

[3] = test system: HT1080 (human fibrosarcoma cells); test: MTT cancer cell growth inhibition; type: cell-based; conditions: Homo sapiens, HT-1080, 72 h, MTT
Summary of the method: as §1

[4] = test system: MCF-7 (human breast cancer cells); test: MTT cancer cell growth inhibition; type: cell-based; conditions: Homo sapiens, MCF7, 72 h
Summary of the method: as §1

[5] = test system: MOLT-4 (human acute lymphoblastic leukemia cells); test: MTT cancer cell growth inhibition; type: cell-based; conditions: Homo sapiens, MOLT-4, 72 h, MTT
Summary of the method: as §1

[6] = test system: A549 (human lung cancer cells); test: MTT cancer cell growth inhibition; type: cell-based; conditions: Homo sapiens, A549, 72 h, MTT
Summary of the method: as §1

[7] = test system: BGC-823 (human gastric cancer cells); test: MTT cancer cell growth inhibition; type: cell-based; conditions: MTT
Summary of the method: as §1

[8] = test system: PANC-1 (Pac-1, human pancreatic cancer cells); test: MTT cancer cell growth inhibition; type: cell-based; conditions: Homo sapiens, PANC-1, 72 h, MTT
Summary of the method: as §1

[9] = test system: N-87 (human gastric cancer cells); test: MTT cancer cell growth inhibition; type: cell-based; conditions: Homo sapiens, 72 h, MTT, 72 hours incubation, N-87 cells; read-out: GI50 N-87
Summary of the method: as §1

[10] = test system: U937 (human leukemia cells); test: MTT cancer cell growth inhibition; type: cell-based; conditions: Homo sapiens, U-937, 72 h, MTT
Summary of the method: as §1

[11] = test system: SGC-7901 (human gastric cancer cells); test: MTT cancer cell growth inhibition; type: cell-based; conditions: Homo sapiens, SGC-7901, 72 h, MTT, 72 hours incubation, SGC-7901 cells; read-out: GI50 SGC-7901
Summary of the method: as §1

[12] = test system: K562 (human leukemia cells); test: MTT cancer cell growth inhibition; type: cell-based; conditions: MTT, 72 hours incubation, K562 cells, read-out: GI50 K562
Summary of the method: as §1

[13] = test system: DU145 (human prostate cancer cells); test: MTT cancer cell growth inhibition; type: cell-based; conditions: MTT
Summary of the method: as §1

[14] = test system: HCC827 (human non-small cell lung cancer cells); test: MTT cancer cell growth inhibition; type: cell-based; conditions: Homo sapiens, HCC827, 72 h, MTT, 72 hours incubation, HCC827 cells; read-out: GI50 HCC827
Summary of the method: as §1

[15] = test system: lncap (prostate cancer cells); test: MTT cancer cell growth inhibition; type: cell-based; conditions: Homo sapiens, LNCaP, 72 h, MTT
Summary of the method: as §1

[16] = test system: Huh-7 (human hepatoma cells); test: MTT cancer cell growth inhibition; type: cell-based; conditions: Homo sapiens, Huh-7, 72 h, MTT, 72 hours incubation, Huh-7 cells; read-out: GI50 Huh-7
Summary of the method: as §1

[17] = test system: MDA-MB-231 (breast cancer cells); test: MTT cancer cell growth inhibition; type: cell-based; conditions: Homo sapiens, MDA-MB-231, 72 h, read-out: GI50 MDA-MB-231, MTT, 72 hours incubation, MDA-MB-231 cells
Summary of the method: as §1

[18] = test system: KBM5-T315I (human chronic myelogenous leukemia); test: MTT cancer cell growth inhibition; type: cell-based; conditions: Homo sapiens, 72 h, MTT, 72 hours incubation, KBM5-T315I cells; read-out: GI50 KBM5-T315I
Summary of the method: as §1

[19] = test system: H1975 (non-small cell lung adenocarcinoma); test: MTT cancer cell growth inhibition; type: cell-based; conditions: Homo sapiens, NCI-H1975, 72 h, MTT, 72 hours incubation, H1975 cells; read-out: GI50 H1975
Summary of the method: as §1

[20] = test system: Bel-7402 (human hepatoma cells); test: MTT cancer cell growth inhibition; type: cell-based; conditions: Homo sapiens, Bel-7402, 72 h, MTT, 72 hours incubation, Bel-7402 cells; read-out: GI50 Bel-7402
Summary of the method: as §1

[21] = test system: KBM-5 (human chronic myelogenous leukemia); test: MTT cancer cell growth inhibition; type: cell-based; conditions: Homo sapiens, KBM5, 72 h, MTT, 72 hours incubation, KBM-5 cells; read-out: GI50 KBM-5
Summary of the method: as §1

[22] = molecular target: HDAC1 (Homo sapiens, UniProt Q13547); test: HDAC biochemical activity measurement (fluorescent substrate deacetylation);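 note: fluorogenic acetyl-lysine substrate (20 µM) deacetylated by HDAC1, then developer releases fluorophore read at 360 nm excitation and 460 nm emission, inhibitor incubated 30 min at 37 °C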
Chain of HDAC1 (Q13547 whole entry, species assumed): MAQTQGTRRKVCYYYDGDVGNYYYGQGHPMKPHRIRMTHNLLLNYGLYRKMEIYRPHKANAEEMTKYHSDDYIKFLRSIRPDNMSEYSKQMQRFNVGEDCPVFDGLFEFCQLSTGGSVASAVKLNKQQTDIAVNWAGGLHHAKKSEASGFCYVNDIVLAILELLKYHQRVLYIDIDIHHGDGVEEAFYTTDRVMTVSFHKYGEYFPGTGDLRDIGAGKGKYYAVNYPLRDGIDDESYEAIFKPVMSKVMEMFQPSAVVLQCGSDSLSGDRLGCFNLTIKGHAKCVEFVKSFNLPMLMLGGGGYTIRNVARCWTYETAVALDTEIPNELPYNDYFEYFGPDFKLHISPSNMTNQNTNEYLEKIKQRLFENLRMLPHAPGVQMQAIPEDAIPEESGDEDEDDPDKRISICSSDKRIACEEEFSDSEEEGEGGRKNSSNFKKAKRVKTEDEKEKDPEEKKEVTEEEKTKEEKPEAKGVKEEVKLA

[23] = molecular target: HDAC3 (Homo sapiens, UniProt O15379); test: as above;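 note: fluorogenic acetyl-lysine substrate (20 µM) deacetylated by HDAC3, then developer added for 15 min at room temperature, release of fluorophore read at excitation 360 nm, emission 460 nm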
Chain of HDAC3 (O15379 whole entry, species assumed): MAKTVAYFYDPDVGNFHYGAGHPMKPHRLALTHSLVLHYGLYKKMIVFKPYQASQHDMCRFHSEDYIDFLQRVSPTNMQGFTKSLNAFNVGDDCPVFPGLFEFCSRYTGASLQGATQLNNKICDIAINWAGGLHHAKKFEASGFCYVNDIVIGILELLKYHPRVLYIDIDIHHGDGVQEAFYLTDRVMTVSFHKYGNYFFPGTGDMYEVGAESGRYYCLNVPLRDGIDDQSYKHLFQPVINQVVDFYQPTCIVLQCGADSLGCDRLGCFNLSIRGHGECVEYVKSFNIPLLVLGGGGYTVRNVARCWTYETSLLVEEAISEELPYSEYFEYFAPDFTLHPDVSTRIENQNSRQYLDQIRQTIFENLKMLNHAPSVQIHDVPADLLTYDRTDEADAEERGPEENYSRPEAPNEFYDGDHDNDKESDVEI
Chain of HDAC3 (Q9Y618 395-489 partner limits assumed, species assumed): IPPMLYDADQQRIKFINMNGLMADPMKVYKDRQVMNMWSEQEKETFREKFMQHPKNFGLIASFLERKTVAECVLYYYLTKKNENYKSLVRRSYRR

[24] = HDAC1, 37° C. 30 minutes, read-out: IC50 HDAC1
[25] = read-out: IC50 HDAC3, HDAC3, 37° C. 30 minutes
[26] = 72 hours incubation, read-out: GI50 Hela
[27] = 72 hours incubation, read-out: GI50 HT1
[28] = 72 hours incubation, read-out: GI50 MCF
[29] = 72 hours incubation, read-out: GI50 Mol
[30] = 72 hours incubation, read-out: GI50 A54
[31] = 72 hours incubation, read-out: GI50 PAN
[32] = 72 hours incubation, read-out: GI50 U93
[33] = 72 hours incubation, read-out: GI50 lnca

IC50 [1]: 38 nM
GI50 ([2]; Hela cells, 72 hours incubation, read-out: GI50 Hela): 810 nM
GI50 ([2]; 72 hours, present invention, read-out: GI50 Hela, a): 810 nM
GI50 ([3]; HT1080 cells, 72 hours incubation, read-out: GI50 HT1): 190 nM
GI50 ([3]; 72 hours, present invention, read-out: GI50 HT1080, a): 197 nM
GI50 ([4]; 72 hours, present invention, read-out: GI50 MCF7, a): 760 nM
GI50 ([4]; MCF-7 cells, 72 hours incubation, read-out: GI50 MCF): 760 nM
GI50 ([5]; MOLT-4 cells, 72 hours incubation, read-out: GI50 Mol): 860 nM
GI50 ([5]; 72 hours, present invention, read-out: GI50 Molt-4, a): 860 nM
GI50 ([6]; A549 cells, 72 hours incubation, read-out: GI50 A54): 510 nM
GI50 ([6]; 72 hours, present invention, read-out: GI50 A549, a): 510 nM
GI50 ([7]; Homo sapiens, BGC-823, 72 h, BGC-823 cells, 72 hours incubation, read-out: GI50 BG): 90 nM
GI50 ([7]; Homo sapiens, BGC-823, 72 h, 72 hours, present invention, read-out: GI50 BGC823, a): 93 nM
GI50 ([8]; 72 hours, present invention, read-out: GI50 PANC-1, a): 210 nM
GI50 ([8]; PANC-1 cells, 72 hours incubation, read-out: GI50 PAN): 210 nM
GI50 [9]: 26 nM
GI50 ([10]; 72 hours, present invention, read-out: GI50 U937, a): 77 nM
GI50 ([10]; U937 cells, 72 hours incubation, read-out: GI50 U93): 70 nM
GI50 [11]: 48 nM
GI50 ([12]; Homo sapiens, K562, 72 h): 73 nM
GI50 ([13]; Homo sapiens, DU-145, 72 h, DU145 cells, 72 hours incubation, read-out: GI50 Du1): 90 nM
GI50 ([13]; Homo sapiens, DU-145, 72 h, 72 hours, present invention, read-out: GI50 Du145, a): 91 nM
GI50 [14]: 26 nM
GI50 ([15]; 72 hours, present invention, read-out: GI50 lncap, a): 530 nM
GI50 ([15]; lncap cells, 72 hours incubation, read-out: GI50 lnca): 50 nM
GI50 [16]: 67 nM
GI50 [17]: 17 nM
GI50 [18]: 53 nM
GI50 [19]: 72 nM
GI50 [20]: 75 nM
GI50 [21]: 33 nM
IC50 [22, 24]: 43 nM
IC50 ([22]; Table 2, read-out: IC50 HDAC1, a (compounds of the present invention)): < 50 nM
IC50 [23, 25]: 66 nM
SMILES: C/C=C1\NC(=O)c2cccc(n2)CNC(=O)C[C@@H](/C=C/CCSC(=O)CCCCCCC)OC(=O)[C@@H](C)NC1=O [Compound 236]

IC50 [1]: 38 nM
GI50 [2, 26]: 80 nM
GI50 [3, 27]: 60 nM
GI50 [4, 28]: 90 nM
GI50 [5, 29]: 30 nM
GI50 [6, 30]: 30 nM
GI50 ([7]; Homo sapiens, BGC-823, 72 h, 72 hours incubation, read-out: GI50 BG): 70 nM
GI50 [8, 31]: 60 nM
GI50 [9]: 75 nM
GI50 [10, 32]: 50 nM
GI50 [11]: 38 nM
GI50 ([12]; Homo sapiens, K562, 72 h): 34 nM
GI50 ([13]; Homo sapiens, DU-145, 72 h, 72 hours incubation, read-out: GI50 Du1): 30 nM
GI50 [14]: 67 nM
GI50 [15, 33]: 30 nM
GI50 [16]: 38 nM
GI50 [17]: 38 nM
GI50 [18]: 94 nM
GI50 [19]: 53 nM
GI50 [20]: 67 nM
GI50 [21]: 81 nM
IC50 [22, 24]: 13 nM
IC50 ([22]; Table 3, column C, read-out: IC50 HDAC1, C (six-membered ring with substituents)): 13 nM
IC50 [23, 25]: 38 nM
SMILES: C/C=C1\NC(=O)c2cc(F)cc(n2)CNC(=O)C[C@@H](/C=C/CCSC(=O)CCCCCCC)OC(=O)[C@H](C)NC1=O [Compound 61]

IC50 [1]: 35 nM
GI50 [2, 26]: 60 nM
GI50 [3, 27]: 80 nM
GI50 [4, 28]: 30 nM
GI50 [5, 29]: 30 nM
GI50 [6, 30]: 40 nM
GI50 ([7]; 72 hours incubation, read-out: GI50 BG): 30 nM
GI50 [8, 31]: 80 nM
GI50 [9]: 37 nM
GI50 [10, 32]: 30 nM
GI50 [11]: 41 nM
GI50 [12]: 39 nM
GI50 ([13]; 72 hours incubation, read-out: GI50 Du1): 30 nM
GI50 [14]: 84 nM
GI50 [15, 33]: 30 nM
GI50 [16]: 33 nM
GI50 [17]: 33 nM
GI50 [18]: 35 nM
GI50 [19]: 34 nM
GI50 [20]: 84 nM
GI50 [21]: 61 nM
IC50 [22, 24]: 42 nM
IC50 [23]: 28 nM
SMILES: C/C=C1\NC(=O)c2cc(F)cc(n2)CNC(=O)C[C@@H](/C=C/CCSC(C)=O)OC(=O)[C@H](C(C)C)NC1=O [Compound 94]
